Experimental data: publication PMC4018993, “Use of “one-pot, mix-and-read” peptide-MHC class I tetramers and predictive algorithms to improve detection of cytotoxic T lymphocyte responses in cattle” (Veterinary Research, 2014)
“Also recorded” adds a separate entry of the source.

What was measured:
BoLA-T7 (bovine) = experiment: not stated; preliminary data, not shown
BoLA-3*00101 = tested on: BoLA-3*00101; set-up: method as in PMID 18070892; conditions: ref [29]; cited from earlier work
BoLA-6*01301 = tested on: BoLA-6*01301
Method: Peptides were purchased from Mimotopes (Victoria, Australia) at a purity of 95% and re-suspended in water containing 0.1% acetic acid at a final concentration of 10 mM and diluted to working concentrations in sterile water. The sequences of T. parva peptide epitopes are as in Table 1.

CTL line BB007 [1] = experiment: p-MHC class I tetramer staining of CTL line BB007; format: cell-based, bovine; conditions: peptide as BoLA-6*01301 tetramer, PE-streptavidin; Figure 1
Method: (§1) UFC510024] at 14 000 g for 10 min.

CTL line Bx196 = experiment: p-MHC class I tetramer staining of CTL line Bx196; format: cell-based, bovine; conditions: cell line printed as 196; Tp2_96-104-BoLA-T2c tetramers
Method: as §1

CTL line Bx63 = experiment: p-MHC class I tetramer staining of CTL line Bx63; format: cell-based, bovine; conditions: cell line Bx63; Tp8_379-387-BoLA-3*00101 tetramers
Method: as §1

CTL line BB007 [2] = experiment: multiple staining of tetramer-positive cells (CD8, FasL, perforin); format: cell-based, bovine
Method: Flow cytometry data were acquired on a BD FACSCanto™ II instrument (BD Biosciences). Compensation controls for PE, PerCP, FITC and APC were included for automatic compensation by the FACS DIVA software. 10 μL BoLA class I tetramer was used for staining cells (between 2 × 10^5 and 5 × 10^5 cells per sample). CD8 staining was done by incubating cells with ILRI monoclonal antibody ILA51 (IgG1) and using rat anti-mouse IgG1-PerCP (BD; cat # 340272) as the secondary antibody. Staining for perforin was done using anti-human-perforin-FITC (BD Pharmingen, San diego, CA, USA, cat# 556577) and staining for Fas-ligand was done using primary rabbit anti-Fas ligand (Santa Cruz biotechnology, cat no. SC-957) and secondary FITC-coupled anti-rabbit IgG antibody (Sigma, MO, USA, cat# F-0382). All staining were conducted in PBS-0.5% BSA except for intracellular staining with anti-perforin where cells were incubated and stained in PBS-0.1%Saponin-10% FBS. Negative control for intracellular staining was done with anti-dansyl-FITC antibody (BD Pharmingen, San diego, CA, USA, cat# 556577). The data were analyzed using the FlowJo software version 7.6.5.

PBMC of BoLA-A18 cattle = experiment: ex vivo tetramer staining of PBMC from ITM-vaccinated cattle; conditions: days 15 to 17 post ITM vaccination, T. parva Muguga 3308; Tp1_214-224-BoLA-6*01301 tetramers; three BoLA-A18 cattle
Method: Three cattle of BoLA-A18 haplotype (typed with PCR primers [forward] 5’-[…]-3’ and [reverse] 5’-[…]-3’ specific for BoLA-6*01301) were vaccinated by ITM [24] using the T. parva strain Muguga 3308. Whole blood was collected from these cattle at the day of vaccination (day 0) and every two days till appearance of tetramer positive cells. PBMC were purified on Ficoll paque density gradients at 2500 rpm for 25 min and 5 × 10^5 PBMC were stained with the Tp1_214-224-BoLA-6*01301 tetramer as described in the flow cytometry procedure. This animal experiment was approved by the ILRI IACUC committee [# 2012.10].

CTL line BV50 = experiment: p-MHC class I tetramer staining of CTL line BV50; format: cell-based, bovine
Method: as §1

BoLA-T5 = experiment: peptide-BoLA binding assay, BoLA-T5; set-up: species or system bovine; conditions: peptide-BoLA binding assays
Method: (§2) Folding of p-MHC class I complexes was assessed with an ELISA assay as described in [35]. […] After an incubation of 48 h at 18 °C, the complexes were transferred to another 96-well plate pre-coated with streptavidin (Nunc, cat# 436014), which captures biotinylated HC, and incubated for three hours at 4 °C. After washing, the W6/32 monoclonal antibody (Santa Cruz Biotechnology, Texas, USA, cat # SC-32235), which binds to a monomorphic epitope on β2m but only when it is incorporated in p-MHC class I complexes, was added for 1 h at 4 °C. After washing, anti-mouse IgG coupled to peroxidase (Sigma Aldrich, cat # A9917-1ML) was added to the plate followed by incubation for an hour at room temperature and further rounds of washes. Colorimetric change was performed by adding the TMB Plus2 “Ready to Use” Substrate (Kem En Tec, cat # 4395H) for 10 min at room temperature. The reaction was stopped by adding H2SO4 (0.3 M) and optical density was measured using an ELISA plate reader at 450 nm. The concentration of MHC class I and β2m molecules used in such assays is normally in the nanomolar range [35]. […] We are in the process of generating a β2m without the extra start methionine, which should allow use of recombinant molecules in the nanomolar range.

BoLA-1*02301 = experiment: p-MHC monomer binding assay, BoLA-1*02301; set-up: species or system bovine; conditions: data not shown
Method: as §2

Substance: Tp7_(207-214) peptide
- Kd (BoLA-T7 (bovine)): 142 nM

Substance: TGASIQTTL [Tp4 CTL epitope, control peptide for BoLA-3*00101]
- binding to BoLA-3*00101 (in words) (BoLA-3*00101): known binder to BoLA-3*00101

Substance: YMYRVWSPL
- binding to BoLA-6*01301 (in words) (BoLA-6*01301): binds to BoLA-6*01301
- affinity for BoLA-6*01301 (BoLA-6*01301; control peptide from a bank of random nonamer peptides, binding assay as described in [34]): ≥ 1 nM
- tetramer staining of CTL (in words) (CTL line BB007 [1]): very low staining

Substance: FAQSLVCVL [Tp2_96-104, irrelevant peptide for BoLA-6*01301]
- binding to BoLA-6*01301 (in words) (BoLA-6*01301): does not bind BoLA-6*01301
- tetramer staining of CTL (in words) (CTL line BB007 [1]): low level smear staining
- tetramer positive cells (CTL line Bx196): about 65%

Substance: CGAELNHFL [Tp8_379-387]
- tetramer positive cells (CTL line Bx63): about 3%

Substance: Tp7_(206-214) peptide
- Kd (BoLA-T7 (bovine)): 252 nM

Substance: VGYPKVKEEML [Tp1_214-224]
- CD8 and perforin, triple staining (CTL line BB007 [2]; Figure 4D): tetramer-positive cells are also positive for CD8 and perforin
- CD8 expression of Tp1 tetramer positive cells (CTL line BB007 [2]; Tp1_214-224-BoLA-6*01301 tetramer, Figure 4A): all Tp1 positive cells in the cell line BB007 were CD8-positive
- FasL expression of Tp1 tetramer positive cells (CTL line BB007 [2]; Tp1_214-224-BoLA-6*01301 tetramer, Figure 4B): FasL-positive
- perforin expression of Tp1 tetramer positive cells (CTL line BB007 [2]; Tp1_214-224-BoLA-6*01301 tetramer, Figure 4C): perforin-positive
- frequency of Tp1 tetramer positive cells in PBMC (PBMC of BoLA-A18 cattle): about 1%
- tetramer staining of CTL (in words) (CTL line BB007 [1]): staining of a clear distinct cell population

Substance: SKADVIAKY [Tp5_87-95]
- co-staining by Tp5_87-95-BoLA-1*02301 (PE) and Tp5_87-95-BoLA-T5 (APC) tetramers (in words) (CTL line BV50; CD8-gated, Figure 7C): both tetramers bind the same population of CTL; also recorded: a single TCR can recognize the Tp5_87-95 epitope presented by either BoLA molecule
- tetramer staining of BV50 (in words) (CTL line BV50; peptide as Tp5_87-95-BoLA-1*02301 tetramer, BV50 and 495 lines tested): The only CTL line stained by this tetramer was BV50
- tetramer staining of BV50 (in words) (CTL line BV50; peptide as Tp5_87-95-BoLA-T5 tetramer, Figure 7B): also stained by Tp5_87-95-BoLA-T5 p-MHC class I tetramers
- peptide-BoLA binding, BoLA-T5 (in words) (BoLA-T5): does indeed bind both BoLA molecules
- p-MHC monomer binding to BoLA-1*02301 (in words) (BoLA-1*02301): confirmed by p-MHC monomer binding assays; also recorded: does indeed bind both BoLA molecules
